Experimental data: patent US11485742B2, “2-azaspiro[3.4]octane derivatives as M4 agonists” (NOVARTIS AG, priority 2019, dated 2022)

Experiments:
[1] = biological target: T1, human cloned CHRM5 receptor (Homo sapiens, UniProt P08912); experiment: CHRM5 Ca++ Flux Assay (M5_CHO cells, agonist mode); type: cell-based; settings: for Emax / M5 FDSS PA %: Percent Activity (PA) measured to EC100 of Carbachol; for Emax: read-out: M5 FDSS PA %; for EC50: agonist mode, geometric mean if tested more than once, read-out: M5 FDSS EC50
T1 construct: expressed in transfected cells; host or cells: CHO (M5_CHO)
T1 sequence (P08912 1-532): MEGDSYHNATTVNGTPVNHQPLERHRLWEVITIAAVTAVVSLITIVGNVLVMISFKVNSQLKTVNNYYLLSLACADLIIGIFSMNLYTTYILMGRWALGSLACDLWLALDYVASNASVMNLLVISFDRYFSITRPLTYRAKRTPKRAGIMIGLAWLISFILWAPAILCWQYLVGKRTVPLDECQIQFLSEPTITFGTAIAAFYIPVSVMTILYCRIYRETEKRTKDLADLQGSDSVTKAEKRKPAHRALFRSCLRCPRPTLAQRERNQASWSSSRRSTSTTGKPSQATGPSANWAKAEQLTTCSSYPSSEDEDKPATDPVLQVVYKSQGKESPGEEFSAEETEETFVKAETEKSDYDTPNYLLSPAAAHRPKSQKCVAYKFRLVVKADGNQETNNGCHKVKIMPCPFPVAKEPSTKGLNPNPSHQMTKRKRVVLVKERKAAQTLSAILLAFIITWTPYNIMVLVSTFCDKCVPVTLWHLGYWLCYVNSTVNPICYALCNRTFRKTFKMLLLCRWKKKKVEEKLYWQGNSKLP
Method in brief: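 Agonist-mode calcium mobilisation: compounds, 11 concentrations in triplicate, applied to stable M3_CHO or M5_CHO cells loaded with Ca++ dye, fluorescence followed 3 min. Efficacy expressed against carbachol EC100; EC curves by four-parameter nonlinear regression, geometric mean across independent runs.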

[2] = biological target: T2, human cloned CHRM2 receptor (Homo sapiens, UniProt P08172); experiment: CHRM2 Ca++ Flux Assay (M2_CHO cells, agonist mode); type: cell-based; settings: M2 CHO cells; for EC50: agonist mode, geometric mean if tested more than once, read-out: M2 FDSS EC50; for Emax / M2 FDSS PA %: Percent Activity (PA) measured to EC100 of Carbachol; for Emax: read-out: M2 FDSS PA %
T2 construct: expressed in transfected cells; host or cells: CHO-K1 (M2_CHO)
T2 sequence (P08172 1-466): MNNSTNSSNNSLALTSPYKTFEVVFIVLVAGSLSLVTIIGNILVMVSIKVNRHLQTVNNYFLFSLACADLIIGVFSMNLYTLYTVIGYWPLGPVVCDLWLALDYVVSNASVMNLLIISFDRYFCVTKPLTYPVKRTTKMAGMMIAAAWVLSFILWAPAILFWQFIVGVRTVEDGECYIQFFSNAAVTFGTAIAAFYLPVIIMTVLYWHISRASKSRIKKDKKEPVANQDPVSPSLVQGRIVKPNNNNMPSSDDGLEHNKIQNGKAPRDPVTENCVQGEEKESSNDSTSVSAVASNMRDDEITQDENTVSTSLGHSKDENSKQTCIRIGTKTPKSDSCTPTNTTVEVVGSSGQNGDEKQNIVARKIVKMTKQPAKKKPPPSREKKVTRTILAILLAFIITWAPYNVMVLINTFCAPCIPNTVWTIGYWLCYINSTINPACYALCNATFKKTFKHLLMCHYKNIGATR
Method in brief: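 Agonist activity was expressed as percent of the carbachol EC100 response, fitted by four-parameter regression on triplicate wells, with geometric means across repeat runs. Calcium traces over 3 minutes came from dye-loaded M2_CHO cells (12K/well) pre-incubated 60 min in Ca/Mg-free HBSS with 20 mM HEPES, 2.5 mM probenecid and 20 μM ATP.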

Row | SMILES | Emax [1] [%] | EC50 [1] [µM] | EC50 [2] [µM] | Emax [2] [%] | M5 FDSS PA % [1] [%] | M2 FDSS PA % [2] [%]
1 | Fc1ccc(OC[C@H]2COCCO2)c(C2CCN([C@@H]3COC4(C3)CN(c3ncco3)C4)CC2)c1 [Example 4B, (S)-7-(4-(2-(((R)-1,4-dioxan-2-yl)methoxy)-5-fluorophenyl)piperidin-1-yl)-2-(oxazol-2-yl)-5-oxa-2-azaspiro[3.4]octane] | 0 | > 25 | > 25 | 32 | – | –
2 | c1ccc(C2CCN([C@@H]3COC4(C3)CN(c3ncco3)C4)CC2)c(O[C@@H]2CCOC2)c1 [Example 4F, (S)-2-(oxazol-2-yl)-7-(4-(2-(((R)-tetrahydrofuran-3-yl)oxy)phenyl)piperidin-1-yl)-5-oxa-2-azaspiro[3.4]octane] | 0 | > 25 | 3.26 | 17 | – | –
3 | O[C@H]1CC[C@@H](c2ccc(F)cc2C2CCN([C@@H]3COC4(C3)CN(c3nnco3)C4)CC2)CC1 (single isomer, unassigned) [Example 3H, (1R,4s)-4-(2-(1-((S)-2-(1,3,4-oxadiazol-2-yl)-5-oxa-2-azaspiro[3.4]octan-7-yl)piperidin-4-yl)-4-fluorophenyl)cyclohexan-1-ol or (1S,4r)-4-(2-(1-((S)-2-(1,3,4-oxadiazol-2-yl)-5-oxa-2-azaspiro[3.4]octan-7-yl)piperidin-4-yl)-4-fluorophenyl)cyclohexan-1-ol] | – | > 25 | 2.46 | – | 0 | 30
4 | Fc1ccc(OC[C@@H]2COCCO2)c(C2CCN([C@@H]3COC4(C3)CN(c3nnco3)C4)CC2)c1 [Example 1F, (S)-7-(4-(2-(((S)-1,4-dioxan-2-yl)methoxy)-5-fluorophenyl)piperidin-1-yl)-2-(1,3,4-oxadiazol-2-yl)-5-oxa-2-azaspiro[3.4]octane] | 0 | > 25 | 0.39 | 31 | – | –
5 | Fc1cc(F)c(OC2CCOCC2)c(C2CCN([C@@H]3COC4(C3)CN(c3nnco3)C4)CC2)c1 [Example 2BB, (S)-7-(4-(3,5-difluoro-2-((tetrahydro-2H-pyran-4-yl)oxy)phenyl)piperidin-1-yl)-2-(1,3,4-oxadiazol-2-yl)-5-oxa-2-azaspiro[3.4]octane] | 0 | > 25 | 4.85 | 27 | – | –
6 | c1ccc(C2CCN([C@@H]3COC4(C3)CN(c3nnco3)C4)CC2)c(C2CCOCC2)c1 [Example 3C, (S)-2-(1,3,4-oxadiazol-2-yl)-7-(4-(2-(tetrahydro-2H-pyran-4-yl)phenyl)piperidin-1-yl)-5-oxa-2-azaspiro[3.4]octane] | 0 | > 25 | 4.82 | 34 | – | –
7 | C[C@H](Oc1ccc(F)cc1C1CCN([C@@H]2COC3(C2)CN(c2nnco2)C3)CC1)C1CCOCC1 (single isomer, unassigned) [Example 2Y, (S)-7-(4-(5-fluoro-2-((S)-1-(tetrahydro-2H-pyran-4-yl)ethoxy)phenyl)piperidin-1-yl)-2-(1,3,4-oxadiazol-2-yl)-5-oxa-2-azaspiro[3.4]octane or (S)-7-(4-(5-fluoro-2-((R)-1-(tetrahydro-2H-pyran-4-yl)ethoxy)phenyl)piperidin-1-yl)-2-(1,3,4-oxadiazol-2-yl)-5-oxa-2-azaspiro[3.4]octane] | – | 9.46 | 3.33 | – | 13 | 35
8 | c1ccc(C2CCN([C@@H]3COC4(C3)CN(c3ncco3)C4)CC2)c(C2CCOCC2)c1 [Example 4V, (S)-2-(oxazol-2-yl)-7-(4-(2-(tetrahydro-2H-pyran-4-yl)phenyl)piperidin-1-yl)-5-oxa-2-azaspiro[3.4]octane] | 0 | > 25 | 10.7 | 14 | – | –
9 | COc1ccc(Cl)cc1C1CCN([C@@H]2COC3(C2)CN(c2ncns2)C3)CC1 [Example 5A, (S)-7-(4-(5-chloro-2-methoxyphenyl)piperidin-1-yl)-2-(1,2,4-thiadiazol-5-yl)-5-oxa-2-azaspiro[3.4]octane] | 0 | > 25 | > 25 | 26 | – | –
10 | CC(C)(O)COc1ccc(F)cc1C1CCN([C@@H]2COC3(C2)CN(c2nncs2)C3)CC1 [Example 5U, (S)-1-(2-(1-(2-(1,3,4-thiadiazol-2-yl)-5-oxa-2-azaspiro[3.4]octan-7-yl)piperidin-4-yl)-4-fluorophenoxy)-2-methylpropan-2-ol] | 0 | > 25 | 0.483 | 17 | – | –
11 | Fc1ccc(O[C@H]2CCCOC2)c(C2CCN([C@@H]3COC4(C3)CN(c3nnco3)C4)CC2)c1 (single isomer, unassigned) [Example 2Q, (S)-7-(4-(5-fluoro-2-(((S)-tetrahydro-2H-pyran-3-yl)oxy)phenyl)piperidin-1-yl)-2-(1,3,4-oxadiazol-2-yl)-5-oxa-2-azaspiro[3.4]octane or (S)-7-(4-(5-fluoro-2-(((R)-tetrahydro-2H-pyran-3-yl)oxy)phenyl)piperidin-1-yl)-2-(1,3,4-oxadiazol-2-yl)-5-oxa-2-azaspiro[3.4]octane] | – | > 25 | 1.16 | – | 0 | 26
12 | Fc1ccc(C2CCN([C@@H]3COC4(C3)CN(c3ncco3)C4)CC2)c(OC2COC2)c1 [Example 4S, (S)-7-(4-(4-fluoro-2-(oxetan-3-yloxy)phenyl)piperidin-1-yl)-2-(oxazol-2-yl)-5-oxa-2-azaspiro[3.4]octane] | 0 | > 25 | > 25 | 31 | – | –
13 | c1ccc(C2CCN([C@@H]3COC4(C3)CN(c3ncco3)C4)CC2)c(OC2COC2)c1 [Example 4C, (S)-2-(oxazol-2-yl)-7-(4-(2-(oxetan-3-yloxy)phenyl)piperidin-1-yl)-5-oxa-2-azaspiro[3.4]octane] | 0 | > 25 | 0.433 | 38 | – | –
14 | CC(C)(O)[C@H]1C[C@@H](Oc2ccc(F)cc2C2CCN([C@@H]3COC4(C3)CN(c3ncco3)C4)CC2)C1 (single isomer, unassigned) [Example 4U, 2-((1R,3s)-3-(4-fluoro-2-(1-((S)-2-(oxazol-2-yl)-5-oxa-2-azaspiro[3.4]octan-7-yl)piperidin-4-yl)phenoxy)cyclobutyl)propan-2-ol or 2-((1S,3r)-3-(4-fluoro-2-(1-((S)-2-(oxazol-2-yl)-5-oxa-2-azaspiro[3.4]octan-7-yl)piperidin-4-yl)phenoxy)cyclobutyl)propan-2-ol] | – | > 25 | 15.2 | – | 0 | 38
15 | c1ccc(C2CCN([C@@H]3COC4(C3)CN(c3ncco3)C4)CC2)c(OC2CC3(COC3)C2)c1 [Example 4M, (S)-7-(4-(2-((2-oxaspiro[3.3]heptan-6-yl)oxy)phenyl)piperidin-1-yl)-2-(oxazol-2-yl)-5-oxa-2-azaspiro[3.4]octane] | 0 | > 25 | > 25 | 0 | – | –
16 | Fc1ccc(C2CCOCC2)c(C2CCN([C@@H]3COC4(C3)CN(c3ncco3)C4)CC2)c1 [Example 4W, (S)-7-(4-(5-fluoro-2-(tetrahydro-2H-pyran-4-yl)phenyl)piperidin-1-yl)-2-(oxazol-2-yl)-5-oxa-2-azaspiro[3.4]octane] | 0 | > 25 | 5.16 | 21 | – | –
17 | c1ccc(C2CCN([C@@H]3COC4(C3)CN(c3ncco3)C4)CC2)c(OC2CCOCC2)c1 [Example 4J, (S)-2-(oxazol-2-yl)-7-(4-(2-((tetrahydro-2H-pyran-4-yl)oxy)phenyl)piperidin-1-yl)-5-oxa-2-azaspiro[3.4]octane] | 0 | > 25 | > 25 | 0 | – | –
